Results: patent publication US20260317324A1, “BIFUNCTIONAL COMPOUNDS FOR DEGRADING BRAF VIA UBIQUITIN PROTEOSOME PATHWAY” (Nurix Therapeutics, Inc., priority 2023, published 2026)

Assays:
Format in all cases: cell-based
[1] = target: T1, BRAF V600E (Homo sapiens, UniProt P15056, V600E); assay: BRAF HiBiT degradation assay, C-terminal HiBiT-tagged BRAF V600E A375 cells (clone 1F10), Nano-Glo HiBiT Lytic assay; conditions: A375 (BRAF V600E, Class 1); for DC50: DC50 at 50% degradation; for Dmax: A-375, observed Dmax, % protein degraded relative to DMSO control
T1 construct: endogenous C-terminal HiBiT fusion tag on BRAF V600E allele; endogenous in cells; host or cells: A375 clone 1F10 (CRISPR-Cas9 knock-in of the HiBiT tag; parental A375 from ATCC)
Procedure, shortened: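 Endogenous BRAF V600E-HiBiT A375 (1F10), 10,000 cells/well, 24 h preculture; cpd 11-pt, 1 μM–0.01 nM half-log, n=2, 0.2% DMSO; HiBiT lytic detection 10 min RT; DC50 = fitted conc at Y=50; Obs. Dmax vs DMSO.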

[2] = target: T2, BRAF G466V (Homo sapiens, UniProt P15056, G466V); assay: BRAF HiBiT degradation assay, C-terminal HiBiT-tagged BRAF G466V overexpressed in HCT-116 BRAF−/− cells (clone 8), Nano-Glo HiBiT Lytic assay; conditions: BRAF G466V (Class 3), HCT-116 BRAF−/− cells; for DC50: DC50 at 50% degradation; for Dmax: observed Dmax relative to DMSO control
T2 construct: Horizon Discovery (HCT-116 BRAF−/− cells); host or cells: HCT-116 BRAF−/− cells, clone 8, lentiviral transduction
Procedure, shortened: (§1)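 Luminescence from the lytic HiBiT reagent, read after 10 min at room temperature, measured tagged BRAF remaining in lentivirally transduced HCT-116 BRAF−/− cells. Compounds were tested from 1 μM to 0.01 nM in half-log steps at 0.2% DMSO. DC50 values were fitted at 50% remaining.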

[3] = target: T3, BRAF G469A (Homo sapiens, UniProt P15056, G469A); assay: BRAF HiBiT degradation assay, C-terminal HiBiT-tagged BRAF G469A overexpressed in HCT-116 BRAF−/− cells (clone 34), Nano-Glo HiBiT Lytic assay; conditions: BRAF G469A (Class 2), HCT-116 BRAF−/− cells; for DC50: DC50 at 50% degradation; for Dmax: observed Dmax relative to DMSO control
T3 construct: Horizon Discovery (HCT-116 BRAF−/− cells); host or cells: HCT-116 BRAF−/− cells, clone 34, lentiviral transduction
Procedure, shortened: as §1

[4] = target: T4, BRAF D594G (Homo sapiens, UniProt P15056, D594G); assay: BRAF HiBiT degradation assay, C-terminal HiBiT-tagged BRAF D594G overexpressed in HCT-116 BRAF−/− cells (clone 63), Nano-Glo HiBiT Lytic assay; conditions: BRAF D594G (Class 3), HCT-116 BRAF−/− cells; for DC50: DC50 at 50% degradation; for Dmax: observed Dmax relative to DMSO control
T4 construct: Horizon Discovery (HCT-116 BRAF−/− cells); host or cells: HCT-116 BRAF−/− cells, clone 63, lentiviral transduction
Procedure, shortened: as §1

T2 sequence (P15056 whole entry G466V): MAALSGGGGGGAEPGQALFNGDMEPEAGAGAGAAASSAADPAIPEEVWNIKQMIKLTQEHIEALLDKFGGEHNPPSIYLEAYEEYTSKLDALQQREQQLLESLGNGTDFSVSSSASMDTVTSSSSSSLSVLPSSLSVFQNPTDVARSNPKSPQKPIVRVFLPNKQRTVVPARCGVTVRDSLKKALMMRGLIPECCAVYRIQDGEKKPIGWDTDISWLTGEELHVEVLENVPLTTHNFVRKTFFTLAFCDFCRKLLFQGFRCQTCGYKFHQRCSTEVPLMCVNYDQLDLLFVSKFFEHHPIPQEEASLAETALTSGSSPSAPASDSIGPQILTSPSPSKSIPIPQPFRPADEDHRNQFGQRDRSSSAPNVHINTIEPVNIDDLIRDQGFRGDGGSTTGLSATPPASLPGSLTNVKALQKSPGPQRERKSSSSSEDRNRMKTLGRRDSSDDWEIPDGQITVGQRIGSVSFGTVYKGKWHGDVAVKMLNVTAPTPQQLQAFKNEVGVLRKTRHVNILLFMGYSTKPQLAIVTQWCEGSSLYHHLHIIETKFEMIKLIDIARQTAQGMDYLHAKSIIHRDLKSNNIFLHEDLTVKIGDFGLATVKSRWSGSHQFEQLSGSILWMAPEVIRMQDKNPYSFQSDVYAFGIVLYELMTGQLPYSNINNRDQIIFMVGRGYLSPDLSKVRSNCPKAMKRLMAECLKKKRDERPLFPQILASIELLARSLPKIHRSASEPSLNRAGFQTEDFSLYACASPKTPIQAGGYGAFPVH
T1 sequence (P15056 whole entry V600E, the tested form may be a part): as the sequence (P15056 whole entry G466V) above, with V466G, V600E counted along it
T4 sequence (P15056 whole entry D594G): as the sequence (P15056 whole entry G466V) above, with V466G, D594G counted along it
T3 sequence (P15056 whole entry G469A): as the sequence (P15056 whole entry G466V) above, with V466G, G469A counted along it

DC50 [1] [nM]	Dmax [1] [%]	DC50 [2] [nM]	Dmax [2] [%]	DC50 [3] [nM]	Dmax [3] [%]	DC50 [4] [nM]	Dmax [4] [%]	Structure (SMILES)
10 to 50	> 70	> 500	30 to 70	> 500	< 30	> 500	< 30	CCCS(=O)(=O)Nc1cc(Cl)cc(-c2cn(-c3ccc(N4CCN(CC5CCN(c6ccc(N7CCC(=O)NC7=O)cc6)CC5)[C@@H](C)C4)cc3)nc2-c2ccncc2)c1F [Compound 280, N-[5-chloro-3-(1-{4-[(3S)-4-({1-[4-(2,4-dioxo-1,3-diazinan-1-yl)phenyl]piperidin-4-yl}methyl)-3-methylpiperazin-1-yl]phenyl}-3-(pyridin-4-yl)-1H-pyrazol-4-yl)-2-fluorophenyl]propane-1-sulfonamide]
< 10	> 70	< 10	> 70	10 to 50	30 to 70	< 10	30 to 70	O=C1CC[C@H](c2ccc(N3CCC(CN4CCN(c5ccc(-n6cc(-c7cc(Cl)cc(NS(=O)(=O)N8CCCC8)c7F)c(-c7ccncc7)n6)c(F)c5)CC4)CC3)cc2)C(=O)N1 [Compound 281, N-{5-chloro-3-[1-(4-{4-[(1-{4-[(3R)-2,6-dioxopiperidin-3-yl]phenyl}piperidin-4-yl)methyl]piperazin-1-yl}-2-fluorophenyl)-3-(pyridin-4-yl)-1H-pyrazol-4-yl]-2-fluorophenyl}pyrrolidine-1-sulfonamide]
< 10	> 70	< 10	> 70	< 10	30 to 70	< 10	30 to 70	O=C1CC[C@H](c2ccc(N3CCC(CN4CCN(c5ccc(-n6cc(-c7cc(Cl)cc(NS(=O)(=O)N8CCCC8)c7F)c(-c7ccncc7)n6)cc5)CC4)CC3)cc2)C(=O)N1 [Compound 282, N-{5-chloro-3-[1-(4-{4-[(1-{4-[(3R)-2,6-dioxopiperidin-3-yl]phenyl}piperidin-4-yl)methyl]piperazin-1-yl}phenyl)-3-(pyridin-4-yl)-1H-pyrazol-4-yl]-2-fluorophenyl}pyrrolidine-1-sulfonamide]
< 10	> 70	< 10	> 70	> 500	30 to 70	< 10	30 to 70	O=C1CCN(c2ccc(N3CCC(CN4CCN(c5ccc(-n6cc(-c7cc(Cl)cc(NS(=O)(=O)N8CCCC8)c7F)c(-c7ccncc7)n6)cc5)CC4)CC3)cc2)C(=O)N1 [Compound 283, N-[5-chloro-3-(1-{4-[4-({1-[4-(2,4-dioxo-1,3-diazinan-1-yl)phenyl]piperidin-4-yl}methyl)piperazin-1-yl]phenyl}-3-(pyridin-4-yl)-1H-pyrazol-4-yl)-2-fluorophenyl]pyrrolidine-1-sulfonamide]
< 10	> 70	< 10	> 70	< 10	> 70	< 10	30 to 70	O=C1CC[C@H](c2ccc(N3CCC(CN4CCN(c5ccc(-n6cc(-c7cc(Cl)cc(NS(=O)(=O)N8CCCC8)c7F)c(-c7ccncc7)n6)cc5)CC4)CC3)nc2)C(=O)N1 [Compound 285, N-{5-chloro-3-[1-(4-{4-[(1-{5-[(3R)-2,6-dioxopiperidin-3-yl]pyridin-2-yl}piperidin-4-yl)methyl]piperazin-1-yl}phenyl)-3-(pyridin-4-yl)-1H-pyrazol-4-yl]-2-fluorophenyl}pyrrolidine-1-sulfonamide]
< 10	> 70	< 10	> 70	10 to 50	30 to 70	< 10	> 70	O=C1CC[C@H](c2ccc(N3CCC(CN4CCN(c5ccc(-n6cc(-c7cc(Cl)cc(NS(=O)(=O)N8CCCC8)c7F)c(-c7ccncc7)n6)nc5)CC4)CC3)cc2)C(=O)N1 [Compound 286, N-{5-chloro-3-[1-(5-{4-[(1-{4-[(3R)-2,6-dioxopiperidin-3-yl]phenyl}piperidin-4-yl)methyl]piperazin-1-yl}pyridin-2-yl)-3-(pyridin-4-yl)-1H-pyrazol-4-yl]-2-fluorophenyl}pyrrolidine-1-sulfonamide]
< 10	> 70	< 10	30 to 70	10 to 50	30 to 70	< 10	30 to 70	O=C1CCN(c2ccc(N3CCC(CN4CCN(c5ccc(-n6cc(-c7cc(Cl)cc(NS(=O)(=O)N8CCCC8)c7F)c(-c7ccncc7)n6)nc5)CC4)CC3)cc2)C(=O)N1 [Compound 287, N-[5-chloro-3-(1-{5-[4-({1-[4-(2,4-dioxo-1,3-diazinan-1-yl)phenyl]piperidin-4-yl}methyl)piperazin-1-yl]pyridin-2-yl}-3-(pyridin-4-yl)-1H-pyrazol-4-yl)-2-fluorophenyl]pyrrolidine-1-sulfonamide]
< 10	> 70	< 10	> 70	< 10	> 70	< 10	> 70	O=C1CC[C@H](c2ccc(N3CCC(CN4CCN(c5ccc(-n6cc(-c7cc(Cl)cc(NS(=O)(=O)N8CCCC8)c7F)c(-c7ccncc7)n6)nc5)CC4)CC3)nc2)C(=O)N1 [Compound 290, N-{5-chloro-3-[1-(5-{4-[(1-{5-[(3R)-2,6-dioxopiperidin-3-yl]pyridin-2-yl}piperidin-4-yl)methyl]piperazin-1-yl}pyridin-2-yl)-3-(pyridin-4-yl)-1H-pyrazol-4-yl]-2-fluorophenyl}pyrrolidine-1-sulfonamide]
< 10	> 70	< 10	> 70	< 10	> 70	< 10	> 70	O=C1CC[C@H](c2ccc(N3CCC(CN4CCN(c5ccc(-n6cc(-c7cc(Cl)cc(NS(=O)(=O)N8CC[C@@H](F)C8)c7F)c(-c7ccncc7)n6)cc5)CC4)CC3)cc2)C(=O)N1 [Compound 291, (3R)—N-{5-chloro-3-[1-(4-{4-[(1-{4-[(3R)-2,6-dioxopiperidin-3-yl]phenyl}piperidin-4-yl)methyl]piperazin-1-yl}phenyl)-3-(pyridin-4-yl)-1H-pyrazol-4-yl]-2-fluorophenyl}-3-fluoropyrrolidine-1-sulfonamide]
< 10	> 70	< 10	30 to 70	50 to 500	30 to 70	< 10	30 to 70	O=C1CCN(c2ccc(N3CCC(CN4CCN(c5ccc(-n6cc(-c7cc(Cl)cc(NS(=O)(=O)N8CC[C@@H](F)C8)c7F)c(-c7ccncc7)n6)cc5)CC4)CC3)cc2)C(=O)N1 [Compound 292, (3R)—N-[5-chloro-3-(1-{4-[4-({1-[4-(2,4-dioxo-1,3-diazinan-1-yl)phenyl]piperidin-4-yl}methyl)piperazin-1-yl]phenyl}-3-(pyridin-4-yl)-1H-pyrazol-4-yl)-2-fluorophenyl]-3-fluoropyrrolidine-1-sulfonamide]
< 10	> 70	< 10	> 70	< 10	> 70	< 10	> 70	O=C1CC[C@H](c2ccc(N3CCC(CN4CCN(c5ccc(-n6cc(-c7cc(Cl)cc(NS(=O)(=O)N8CC[C@@H](F)C8)c7F)c(-c7ccncc7)n6)nc5)CC4)CC3)cc2)C(=O)N1 [Compound 294, (3R)—N-{5-chloro-3-[1-(5-{4-[(1-{4-[(3R)-2,6-dioxopiperidin-3-yl]phenyl}piperidin-4-yl)methyl]piperazin-1-yl}pyridin-2-yl)-3-(pyridin-4-yl)-1H-pyrazol-4-yl]-2-fluorophenyl}-3-fluoropyrrolidine-1-sulfonamide]
< 10	> 70	< 10	30 to 70	50 to 500	30 to 70	< 10	30 to 70	O=C1CCN(c2ccc(N3CCC(CN4CCN(c5ccc(-n6cc(-c7cc(Cl)cc(NS(=O)(=O)N8CC[C@@H](F)C8)c7F)c(-c7ccncc7)n6)nc5)CC4)CC3)cc2)C(=O)N1 [Compound 295, (3R)—N-[5-chloro-3-(1-{5-[4-({1-[4-(2,4-dioxo-1,3-diazinan-1-yl)phenyl]piperidin-4-yl}methyl)piperazin-1-yl]pyridin-2-yl}-3-(pyridin-4-yl)-1H-pyrazol-4-yl)-2-fluorophenyl]-3-fluoropyrrolidine-1-sulfonamide]
